Drawing on patent publication US20230011571A1, “SMALL MOLECULE FURIN INHIBITORS FOR TREATING INFECTIOUS DISEASES” (BP Asset V, Inc., priority 2019, published 2023), this text covers inhibition for 15 compounds.

Holding throughout (assay type): cell-based
The subject of assay [1] is Chikungunya virus (CHIKV). As to the kind of experiment: microbe, parasite or virus in culture. The following applies: Chikungunya virus, Vero, 48 h, read-out: Percent viral inhibition CHKV.
For assay [2], the system named is dengue virus (DENV). In words: microbe, parasite or virus in culture. The following applies: Dengue virus, Vero, 120 h, read-out: Percent viral inhibition DENY.
The subject of assay [3] is Marburg virus (MARV). In words: organism not typed. The following applies: Vero, 72 h, read-out: Percent viral inhibition MARV.

Broadly, the inhibition is the relative decrease from the control value, in per cent. As for `CC(CCN1CCN(c2ncc(Oc3cc(CN4CCC(CC(=O)O)CC4)cc(-c4cc(Cl)cc(Cl)c4)n3)cn2)CC1)S(C)(=O)=O` (stereo not drawn) [Example 205, 2-(1-((2-(3,5-dichlorophenyl)-6-((2-(4-(3-(methylsulfonyl)butyl)piperazin-1-yl)pyrimidin-5-yl)oxy)pyridin-4-yl)methyl)piperidin-4-yl)acetic acid], the figures for the inhibition at 1 µM in assay [1], in assay [2] and in assay [3] were 23.7%, 57.6% and 77.6%, respectively.

`CCC(=O)NCC1CCN(Cc2cc(Oc3cnc(N4CCN(CCC(C)C(=O)O)CC4)cn3)nc(-c3cc(Cl)cc(Cl)c3)c2)CC1` (stereo not drawn) [Example 392, 4-(4-(5-((6-(3,5-dichlorophenyl)-4-((4-(propionamidomethyl)piperidin-1-yl)methyl)pyridin-2-yl)oxy)pyrazin-2-yl)piperazin-1-yl)-2-methylbutanoic acid]: the inhibition at 1 µM amounted to 15.8% in assay [1], 34.9% in assay [2] and 60.6% in assay [3].

Regarding `CC(=O)NCC1CCN(Cc2cc(Oc3ccc(N4CCN(CCCC(=O)O)CC4)nc3)nc(-c3cc(Cl)cc(Cl)c3)c2)CC1` [Example 249, 4-(4-(5-((4-((4-(acetamidomethyl)piperidin-1-yl)methyl)-6-(3,5-dichlorophenyl)pyridin-2-yl)oxy)pyridin-2-yl)piperazin-1-yl)butanoic acid], the inhibition at 1 µM in assay [1] was 32.5%; in assay [2], 48.6%; in assay [3], 51.4%.

With `COC(=O)NCC1CCN(Cc2cc(Oc3cnc(N4CCN(C(C)CCC(=O)O)CC4)nc3)nc(-c3cc(Cl)cc(Cl)c3)c2)CC1` (stereo not drawn) [Example 222, 4-(4-(5-((6-(3,5-dichlorophenyl)-4-((4-(((methoxycarbonyl)amino)methyl)piperidin-1-yl)methyl)pyridin-2-yl)oxy)pyrimidin-2-yl)piperazin-1-yl)pentanoic acid], the results for the inhibition at 1 µM in assay [1], in assay [2] and in assay [3] were 25%, 17.6% and 60%, respectively.

For the compound `CC(=O)NCC1CCN(Cc2cc(Oc3ccc(N)cc3)cc(-c3cc(Cl)cc(Cl)c3)c2)CC1` [Example 42, N-((1-((5-(4-aminophenoxy)-3′,5′-dichloro-[1,1′-biphenyl]-3-yl)methyl)piperidin-4-yl)methyl)acetamide], the values for the inhibition at 1 µM in assay [1], in assay [2] and in assay [3] were 7.42%, 24% and 0%, respectively.

On to `COC(=O)NCC1CCN(Cc2cc(Oc3cnc(N4CCN(CCC(=O)O)[C@@H](C)C4)nc3)nc(-c3cc(Cl)cc(Cl)c3)c2)CC1` [Example 294, (S)-3-(4-(5-((6-(3,5-dichlorophenyl)-4-((4-(((methoxycarbonyl)amino)methyl)piperidin-1-yl)methyl)pyridin-2-yl)oxy)pyrimidin-2-yl)-2-methyl-piperazin-1-yl)propanoic acid], for which the inhibition at 1 µM was determined as 28.7% in assay [1], 57.7% in assay [2] and 54.2% in assay [3].

As to `CS(=O)(=O)CCC1CCN(Cc2cc(Oc3ccc(N4CCN(CCC(=O)O)CC4)nc3)nc(-c3cc(Cl)cc(Cl)c3)c2)CC1` [Example 276, 3-(4-(5-((6-(3,5-dichlorophenyl)-4-((4-(2-(methylsulfonyl)ethyl)piperidin-1-yl)methyl)pyridin-2-yl)oxy)pyridin-2-yl)piperazin-1-yl)propanoic acid], the inhibition at 1 µM in assay [1] was 31.8%; in assay [2] it was 27.3%; in assay [3], 51.8%.

`CC(CO)N1CCN(c2ncc(Oc3cc(CN4CCC(CC(=O)O)CC4)cc(-c4cc(Cl)cc(Cl)c4)n3)cn2)CC1` (stereo not drawn) [Example 21, 2-(1-((2-(3,5-dichlorophenyl)-6-((2-(4-(1-hydroxypropan-2-yl)piperazin-1-yl)pyrimidin-5-yl)oxy)pyridin-4-yl)methyl)piperidin-4-yl)acetic acid]: the inhibition at 1 µM in assay [1] is 26.2%; in assay [2], 8.18%; in assay [3], 46.4%.

For the compound `CNC(=O)NCC1CCN(Cc2cc(Oc3cnc(N4CCN(CCC(=O)O)CC4)nc3)nc(-c3cc(Cl)cc(Cl)c3)c2)CC1` [Example 256, 3-(4-(5-((6-(3,5-dichlorophenyl)-4-((4-((3-methylureido)methyl)piperidin-1-yl)methyl)pyridin-2-yl)oxy)pyrimidin-2-yl)piperazin-1-yl)propanoic acid], the results for the inhibition at 1 µM in assay [1], in assay [2] and in assay [3] were 30.4%, 47.2% and 49.3%, respectively.

With `COC(=O)C(C)CCN1CCN(c2ncc(Oc3cc(CN4CCC(CNC(C)=O)CC4)cc(-c4cc(Cl)cc(Cl)c4)n3)cn2)CC1` (stereo not drawn) [Example 368, methyl4-(4-(5-((4-((4-(acetamidomethyl)piperidin-1-yl)methyl)-6-(3,5-dichlorophenyl)pyridin-2-yl)oxy)pyrimidin-2-yl)piperazin-1-yl)-2-methylbutanoate], the inhibition at 1 µM stood at 32.5% in assay [1], 65.8% in assay [2] and 65.4% in assay [3].

For `COCCN1CCN(c2ncc(Oc3cc(CN4CCC(CNC(C)=O)CC4)cc(-c4cc(Cl)cc(Cl)c4)n3)cn2)CC1` [Example 245, N-((1-((2-(3,5-dichlorophenyl)-6-((2-(4-(2-methoxyethyl)piperazin-1-yl)pyrimidin-5-yl)oxy)pyridin-4-yl)methyl)piperidin-4-yl)methyl)acetamide], the inhibition at 1 µM worked out at 24.1% in assay [1], 53.3% in assay [2] and 53.9% in assay [3].

As for `CC(=O)NCC1CCN(Cc2cc(Oc3cnc(N4CCN(CCC(=O)O)CC4)nc3)cc(-c3cc(Cl)cc(Cl)c3)c2)CC1` [Example 168], the inhibition at 1 µM in assay [1] is 29.6%; in assay [2], 38.9%; in assay [3], 60.3%.

Turning to `CN1CCN(c2ncc(Oc3cc(CN4CCC(P(C)(C)=O)CC4)cc(-c4cc(Cl)cc(Cl)c4)n3)cn2)CC1` [Example 331, (1-((2-(3,5-dichlorophenyl)-6-((2-(4-methylpiperazin-1-yl)pyrimidin-5-yl)oxy)pyridin-4-yl)methyl)piperidin-4-yl)dimethylphosphineoxide], the inhibition at 1 µM was 22.6% in assay [1], 56.5% in assay [2] and 69.3% in assay [3].

Consider `CNCc1cc(Oc2ccc(N3CCNCC3)nc2)cc(-c2cc(Cl)cc(Cl)c2)c1` [Example 98, 1-(3′,5′-dichloro-5-((6-(piperazin-1-yl)pyridin-3-yl)oxy)-[1,1′-biphenyl]-3-yl)-N-methylmethanamine], for which the inhibition at 1 µM in assay [1], in assay [2] and in assay [3] was 0% throughout.

Consider `CN1CCN(c2ncc(Oc3cc(CN4CCC(CC(=O)O)CC4)cc(-c4cc(Cl)cc(Cl)c4)n3)cn2)CC(F)C1` (stereo not drawn) [Example 147, 2-(1-((2-(3,5-dichlorophenyl)-6-((2-(6-fluoro-4-methyl-1,4-diazepan-1-yl)pyrimidin-5-yl)oxy)pyridin-4-yl)methyl)piperidin-4-yl)acetic acid], for which the inhibition at 1 µM in assay [1] came out at 31.7%; in assay [2] it was 42.8%; in assay [3] it was 44.2%.
